Experimental data reported in PubChem BioAssay (NCI).
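How tested: cells in 96-well plates exposed to compound for 48 hours at five concentrations. The concentration for 50% growth inhibition is given as GI50. TGI is the concentration that stops growth completely.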

What was measured:
Experiment in all cases: inhibition of tumour cell growth, NCI panel, 48 h
786-0 renal = test system: 786-0 renal
ACHN renal = test system: ACHN renal
HCT-116 colon = test system: HCT-116 colon
HL-60(TB) leukemia = test system: HL-60(TB) leukemia
HS 578T breast = test system: HS 578T breast
LOX IMVI melanoma = test system: LOX IMVI melanoma
MDA-MB-435 = test system: MDA-MB-435
PC-3 prostate = test system: PC-3 prostate
SF-539 CNS = test system: SF-539 CNS
UO-31 renal = test system: UO-31 renal

Structure (SMILES)	TGI (786-0 renal)	TGI (ACHN renal)	TGI (HCT-116 colon)	TGI (HL-60(TB) leukemia)	TGI (HS 578T breast)	TGI (LOX IMVI melanoma)	TGI (MDA-MB-435)	TGI (PC-3 prostate)	TGI (SF-539 CNS)	TGI (UO-31 renal)	GI50 (786-0 renal)	GI50 (ACHN renal)	GI50 (HCT-116 colon)	GI50 (HL-60(TB) leukemia)	GI50 (HS 578T breast)	GI50 (LOX IMVI melanoma)	GI50 (MDA-MB-435)	GI50 (PC-3 prostate)	GI50 (SF-539 CNS)	GI50 (UO-31 renal)
OC(c1cc(C(F)(F)F)nc2c(Cl)cc(Cl)cc12)C1CCCCN1 (stereo not given)	> 38.1 µM	> 43.7 µM	> 35.9 µM	17.7 µM	> 48.4 µM	14.8 µM	18.4 µM	> 43.1 µM	29.9 µM	3.22 µM	–	–	–	–	–	–	–	–	–	–
NC1CC(=O)c2c(-c3cccs3)sc(-c3cccs3)c21 (stereo not given)	> 100 µM	25.5 µM	29.9 µM	61.1 µM	> 100 µM	29 µM	> 100 µM	> 100 µM	47.6 µM	> 100 µM	11.7 µM	10 µM	15.3 µM	20.5 µM	36.7 µM	12.7 µM	38.8 µM	30.8 µM	21.3 µM	24.7 µM
CC1(C)OCC2OC(n3cnc4c(N)nc(Cl)nc43)C(OS(C)(=O)=O)C2O1 (stereo not given)	> 100 µM	> 100 µM	> 100 µM	> 100 µM	> 100 µM	> 100 µM	> 100 µM	> 100 µM	> 100 µM	> 100 µM	–	–	–	–	–	–	–	–	–	–
COc1cc2[nH]c3c(c2cc1OC)CCN[C@@]31CC[C@@]2(CC3c4c(cc(OC)c(O)c42)CCN3C)C[C@@H]1OC (stereo not given in full)	> 100 µM	> 100 µM	> 87.4 µM	30.7 µM	> 52.5 µM	41.4 µM	41.4 µM	> 100 µM	28.4 µM	57.8 µM	–	–	–	–	–	–	–	–	–	–
Clc1cnc(Nc2ccc(OCCN3CCCC3)cc2)nc1NCc1ccco1	13.3 µM	26.4 µM	28.6 µM	5.01 µM	5.18 µM	4.26 µM	11.5 µM	8.53 µM	3.64 µM	11.6 µM	3.15 µM	2.37 µM	2.56 µM	1.03 µM	1.39 µM	1.16 µM	2.73 µM	2.66 µM	1.67 µM	1.87 µM
CN1C(=O)N(C)C2C1NC(=S)N2/N=C/C=C/c1ccccc1[N+](=O)[O-] (stereo not given)	> 100 µM	> 100 µM	> 100 µM	2.8 µM	> 100 µM	> 100 µM	0.997 µM	> 100 µM	8.44 µM	> 100 µM	0.835 µM	0.988 µM	0.634 µM	0.414 µM	0.646 µM	0.87 µM	0.271 µM	0.967 µM	0.537 µM	3.86 µM
CCN1CCN(C(=O)[C@]23CC[C@@H](C)[C@H](C)[C@@H]2C2=CC[C@@H]4[C@@]5(C)CCC(=O)C(C)(C)[C@@H]5CC[C@@]4(C)[C@]2(C)CC3)CC1	1.7 µM	4.38 µM	1.57 µM	2.18 µM	2.68 µM	1.52 µM	2.3 µM	3.17 µM	1.54 µM	1.42 µM	0.814 µM	1.33 µM	0.798 µM	0.98 µM	1.07 µM	0.821 µM	1.05 µM	0.875 µM	0.843 µM	0.726 µM
COc1cc(OC)c(/C=C/C(=O)c2c(OC)cc(OC)cc2OC)c(OC)c1	> 74.7 µM	> 100 µM	10.2 µM	9.44 µM	6.37 µM	4.54 µM	0.694 µM	> 100 µM	3.31 µM	> 100 µM	2.02 µM	2.3 µM	0.6 µM	0.637 µM	1.39 µM	0.782 µM	0.235 µM	0.992 µM	1.27 µM	2.23 µM
CC1Cc2c(Cl)ncnc2N(C)c2ccccc21 (stereo not given)	11.5 µM	> 100 µM	80.3 µM	15 µM	47.3 µM	3.43 µM	16.7 µM	66.9 µM	37.2 µM	89.1 µM	3.23 µM	3.79 µM	3.96 µM	3.39 µM	1.36 µM	1.71 µM	3.24 µM	3.9 µM	4.56 µM	3.37 µM
COc1c(C(N)=O)cc(-c2ccc(Cl)cc2)cc1-c1ccc(S(N)(=O)=O)cc1	> 25 µM	> 25 µM	> 25 µM	> 17.9 µM	24.9 µM	> 25 µM	> 25 µM	24.8 µM	> 25 µM	> 23.5 µM	12.5 µM	10.1 µM	12.4 µM	7.19 µM	14.4 µM	12.4 µM	11.4 µM	7.08 µM	14.2 µM	9.95 µM
COc1ccc2c3ccnc(C(F)(F)F)c3n(CCCCN)c2c1	19.4 µM	16.1 µM	13.4 µM	20.1 µM	22.8 µM	17 µM	20.7 µM	13.9 µM	20.2 µM	8.36 µM	7.09 µM	4.58 µM	3.84 µM	4.78 µM	4.09 µM	4.38 µM	5.69 µM	1.96 µM	6.58 µM	1.6 µM
Nc1nc2cc(Cl)ccc2n1N	> 100 µM	> 100 µM	> 100 µM	> 100 µM	> 100 µM	> 100 µM	> 100 µM	> 100 µM	> 100 µM	> 100 µM	–	–	–	–	–	–	–	–	–	–
